Where “and” joins values, the source holds several entries; their conditions need not be identical. Equal entries are not always repeated.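 Step 1: Grow cells in 96-well plates. Step 2: Expose to compound for 48 hours at 5 concentrations. Step 3: Interpolate endpoints linearly; if unreached, use highest concentration. GI50 marks 50% less growth. TGI denotes the concentration required for complete inhibition of growth.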
Experiments:
Test in all cases: NCI tumour cell line growth inhibition, 48 h
[1] = tested on: ACHN renal
[2] = tested on: CAKI-1 renal
[3] = tested on: HT29 colon
[4] = tested on: M14 melanoma
[5] = tested on: MCF7 breast
[6] = tested on: OVCAR-4 ovarian
[7] = tested on: SK-MEL-5 melanoma
[8] = tested on: LOX IMVI melanoma
[9] = tested on: NCI-H226 lung
[10] = tested on: MOLT-4 leukemia

| Compound | GI50 [1] | TGI [1] [µM] | GI50 [2] [µM] | TGI [2] [µM] | GI50 [3] | TGI [3] [µM] | GI50 [4] [µM] | TGI [4] [µM] | GI50 [5] [µM] | TGI [5] [µM] | GI50 [6] | TGI [6] [µM] | GI50 [7] | TGI [7] [µM] | TGI [8] [µM] | TGI [9] [µM] | TGI [10] [µM] | GI50 [8] [µM] | GI50 [10] [µM] |
| --- | --- | --- | --- | --- | --- | --- | --- | --- | --- | --- | --- | --- | --- | --- | --- | --- | --- | --- | --- |
| CN1CCN(Cc2cc(NC(=O)c3cccc(C#Cc4cccc5[nH]nc(N)c45)c3)cc(C(F)(F)F)c2)CC1 | 1.66 µM | 3.02 | 1.68 | 3.06 | 1.53 µM | 2.93 | 1.35 | 2.9 | 1.65 | 3.26 | 1.59 µM | 3.97 | 1.7 µM | 3.1 | – | – | – | – | – |
| CCCCCCCCCCCCCB(O)O | > 100 µM and 45.4 µM | > 100 | – | – | > 100 µM and 29.9 µM | > 100 | – | > 100 | – | – | > 100 µM and 49.3 µM | > 100 | > 100 µM and 45.4 µM | > 100 | > 100 | > 100 | – | – | – |
| [O-]c1c2c(nn1-c1ccc(Cl)cc1)c1ccccc1c[n+]2Cc1ccccc1 | – | > 100 | – | > 100 | – | > 100 | – | > 100 | – | – | – | > 100 | – | > 100 | > 100 | > 100 | > 100 | – | – |
| C/C(=N\NC(=O)CC(=O)N(C(=O)c1ccc(Cl)cc1)c1ccc(C)cc1)c1ccccc1O | – | > 100 | – | > 100 | – | > 100 | – | > 100 | – | – | – | 13.7 | – | > 100 | – | > 100 | > 100 | – | – |
| COCCn1cc(-c2csc(-c3c[nH]c4ccc(Br)cc34)n2)c2cccnc21 | 3.04 µM | > 100 | 5.21 | > 100 | 3.36 µM | > 100 | 3.27 | 60.2 | 1.79 | > 100 | 2.74 µM | > 100 | 3.24 µM | 11.7 | > 100 | – | > 100 | 2.67 | 3.87 |
| CCOC(=O)CNc1nnnn1C1OC(CO)C(O)C1O (configuration not stated) | – | > 100 | – | > 100 | – | > 100 | – | > 100 | – | – | – | – | – | > 100 | > 100 | > 100 | > 100 | – | – |
| Cn1cnc([N+](=O)[O-])c1Sc1nccc(=O)[nH]1 | – | > 100 | – | > 100 | – | > 100 | – | > 100 | – | – | – | > 100 | – | > 100 | > 100 | > 100 | > 100 | – | – |
| COc1ccc(/C=C2\c3cc(OC)c(OC)c(OC)c3CC[C@@H]2O)cc1F | 0.815 µM | > 100 | 0.391 | > 100 | 1.36 µM | 13.4 | 0.274 | > 100 | 0.088 | > 100 | 1.1 µM | > 100 | 0.234 µM | 17.2 | 48.6 | – | > 100 | 0.395 | 0.956 |
| CCOC1CC2OC(=O)C1C=C2C(=O)OC (configuration not stated) | – | > 100 | – | 40 | – | > 100 | – | 38.6 | – | – | – | 57.4 | – | > 100 | > 100 | > 100 | 48.8 | – | – |
| Cc1ccc2nc(NC(=O)/C(=N\NC(=S)NN)C3C(=O)NC(=S)NC3=O)sc2c1 | – | > 100 | – | > 100 | – | > 100 | – | > 100 | – | – | – | > 100 | – | > 100 | > 100 | > 100 | > 100 | – | – |
| CCOC(=O)C(C(O)c1ccc([N+](=O)[O-])cc1)P(=O)(OCC)OCC (configuration not stated) | – | > 100 | – | > 100 | – | > 100 | – | > 100 | – | – | – | > 100 | – | > 100 | > 100 | > 100 | > 100 | – | – |
| CCN(CC)CCNc1ccc2nc(C)n3c4ccc(O)cc4c(=O)c1c23 | – | 3.78 | – | 3.6 | – | 1.57 | – | 16.2 | – | – | – | 3.87 | – | 15.6 | 2.04 | 2.13 | 0.293 | – | – |
| CC(=O)O[C@H]1CC2C=CC3C(CCC31)O2 (some centres not stated) | – | > 100 | – | > 100 | – | > 100 | – | > 100 | – | – | – | > 100 | – | – | > 100 | – | > 100 | – | – |
| Cc1ccc(NC(=O)OCC(COc2ccc(Cl)cc2Cl)OC(=O)Nc2ccc(C)cc2)cc1 (configuration not stated) | – | > 100 | – | > 100 | – | > 100 | – | > 100 | – | – | – | > 100 | – | – | – | > 100 | – | – | – |
| CCCCCCCC(=O)[O][Hg][CH2]C1COC([CH2][Hg][O]C(=O)CCCCCCC)CO1 (configuration not stated) | 13.9 µM | 26.9 | – | – | 15.6 µM | 34.3 | 16.4 | 30 | 4.32 | 18.3 | – | – | 11 µM | 28.8 | – | – | > 100 | – | 2.26 |
| C=C(CCCO)[C@@H]1CC[C@@](C)(O)[C@H]1C | – | > 100 | – | > 100 | – | > 100 | – | – | – | – | – | > 100 | – | > 100 | – | > 100 | > 100 | – | – |
| COc1cccc(NC(=O)C(=O)C2C=CCS2(=O)=O)c1 (configuration not stated) | – | > 100 | – | > 100 | – | > 100 | – | > 100 | – | – | – | > 100 | – | > 100 | > 100 | > 100 | > 100 | – | – |
| CCCCCC[C@H](C)NC(=O)c1ccc(Nc2nc3ccccc3c3occc23)cc1 | 13.7 µM | 40 | 3.97 | 50.5 | 2.53 µM | > 100 | 2.25 | 5.37 | 5.86 | > 100 | – | – | 2.24 µM | 5.24 | 24.3 | – | > 100 | 11.4 | 3.4 |
| CCOC(=O)C(=O)Nc1ccccc1C(C)C | – | > 100 | – | > 100 | – | > 100 | – | > 100 | – | – | – | > 100 | – | > 100 | – | > 100 | > 100 | – | – |
| CCN(CC)CCn1c2ccccc2c(=O)c2c(OC)ccc(OC)c21 | – | > 100 | – | > 100 | – | > 100 | – | > 100 | – | – | – | > 100 | – | – | > 100 | 97.3 | > 100 | – | – |
| CC1C2CC=CC(=O)[C@@]2(C)CCC12OCCO2 (some centres not stated) | – | > 100 | – | > 100 | – | > 100 | – | > 100 | – | – | – | > 100 | – | 65.4 | – | > 100 | > 100 | – | – |

Reference: PubChem BioAssay (NCI)
